Experimental data: US5874412A, “Bis-anthracyclines with high activity against doxorubicin resistant tumors” (priority 1997, dated 1999)
Where “and” joins values, the source holds several entries; their conditions need not be identical. Identical values can stand only once. Entries after “also recorded” stand apart in the source; their conditions may differ. Counter-ions that a name gives are not always drawn. Like-named read-outs stand apart in the source and are kept apart here.

How the values were obtained:
MCF-7 cells = assay: MTT cytotoxicity assay, sensitive MCF-7 cells; assay type: cell-based, human; conditions: for IC50: Homo sapiens, MCF7, MTT, 72 h, read-out: ID50 MCF-7
KB-V-1 cells [1] = tested on: KB-V-1 cells
KB-V-1 cells [2] = assay: cells; conditions: Homo sapiens, KB-V1, read-out: ID50 KB-V-1
KB-3-1 cells = assay: MTT cytotoxicity assay, sensitive KB-3-1 cells; conditions: Homo sapiens, KB 3-1, read-out: ID50 KB-3-1
topoisomerase II = conditions: Hsiang et al., 1989; cited from earlier work
DNA [3] = assay: Viscosity studies (binding mode, relative viscosity of DNA); conditions: for binding mode from viscosity: in words, slope compared with daunorubicin; for slope of cubed root of the relative viscosity vs bound drug per DNA base pair: linear least squares fits, FIG. 20
Excerpt: FIG. 20. Viscosity studies of WP631-DNA interaction. The cubed root of the relative viscosity (.eta./.eta.0) is shown as a function of the ratio of bound drug per DNA base pair: solid circles, ethidium bromide; open diamonds, daunorubicin; solid diamonds, WP63 1.
The bisanthracyclines may be tested as effective intercalating agents using viscosity assays as described by Suh and Chaires (1995). Such assays are well known to those of skill in the art. In theory, for monointercalation,plots of the cubed root of the relative viscosity ((.eta./.eta.0)^1/3) versus the binding ratio (bound drug/DNA bp) ought to have a slope of 1.0. For bisintercalators, the slope is expected to be twice that observed for monointercalators, an expectation that has been verified for a variety of bisintercalating compounds (Wakelin, 1986). Thus in order to test the effectiveness of a candidate bisintercalator the viscosity of a DNA solution is measured according to assays well known to those of skill in the art (Suh and Chaires, 1995) and compared to the viscosity of a known intercalator such as daunorubicin. If the candidate substance is higher than that of the control monointercalator then the candidate substance is likely to be an effective bisintercalator.
Viscosity Studies. Relative viscosity studies were conducted exactly as described previously (Suh and Chaires, 1995). Data were cast into a plot of (.eta./.eta.0)^1/3 versus ratio of bound drug per DNA base pair, in accord with the theory of Cohen and Eisenberg (1969). Ethidium bromide and daunorubicin were run as controls for these experiments.
WP631 Bisintercalates into DNA. In the absence of high-resolution structural data, hydrodynamic studies, especially viscosity, provide the most reliable means of inferring the binding mode of agents that interact with DNA (Suh and Chaires, 1995). […] The theory of Cohen and Eisenberg (1969) predicts that, for monointercalation,plots of the cubed root of the relative viscosity ((.eta./.eta.0)^1/3) versus the binding ratio (bound drug/DNA bp) ought to have a slope of 1.0.
For bisintercalators, the slope is expected to be twice that observed for monointercalators, an expectation that has been verified for a variety of bisintercalating compounds (Wakelin, 1986). […] The model was constructed using Hyper-Chem software (v. 4.5, Hypercube, Inc.) by using the coordinates of the high-resolution structure reported by Wang et al. (1987) for a 2:1 daunorubicin-DNA complex. The sequence of the hexanucleotide in that study was d(G.CTAG.C)3, where the two equivalent intercalation sites are indicated.

herring sperm DNA [4] = assay: UV melting studies of DNA with drug; binding constant from Tm shift; conditions: for Kd: BPE buffer
herring sperm DNA [5] = assay type: binding
MCF-7/VP-16 cells [6] = conditions: for RI (resistance index) MCF-7/VP16 / MCF-7: human, mcf-7/vp-16 / mcf-7 cells, 4320 min
MCF-7/VP-16 cells [7] = assay: cells; conditions: Homo sapiens, MCF7, 72 h, read-out: ID50 MCF-7/VP16
herring sperm DNA [8] = conditions: cited from earlier work
DNA [9] = conditions: literature; cited from earlier work
[10] = Young et al., 1985; cited from earlier work

COc1cccc2c1C(=O)c1c(O)c3c(c(O)c1C2=O)C[C@@](O)(C(C)=O)C[C@@H]3O[C@H]1C[C@H](O)[C@H](NCc2ccc(CN[C@@H]3[C@H](C)O[C@@H](O[C@H]4C[C@](O)(C(C)=O)Cc5c(O)c6c(c(O)c54)C(=O)c4c(OC)cccc4C6=O)C[C@@H]3O)cc2)[C@H](C)O1 [WP652, α,α'-Bis-4'-N-(4'-amino-3'-deamino-4'-deoxy-3'-hydroxydaunorubicin)-p-xylene hydrochloride]
potency in MCF-7 cells compared with DOX, in words (MCF-7 cells): less potent than DOX | IC50 (MCF-7 cells): 3.9 ± 3.3 µM | cytotoxicity in MDR KB-V1 cells, in words (KB-V-1 cells [1]): unusually active against the MDR cells | IC50 (KB-V-1 cells [2]): 7.1 ± 1.2 µM | IC50 (KB-3-1 cells): 4.8 ± 0.5 µM

CN(C)CCN1C(=O)c2cccc3cc(N)cc(c23)C1=O [amonafide]
inhibition of topoisomerase II (topoisomerase II): inhibit topoisomerase II

COc1cccc2c1C(=O)c1c(O)c3c(c(O)c1C2=O)C[C@@](O)(C(C)=O)C[C@@H]3O[C@H]1C[C@H](NCc2ccc(CN[C@H]3C[C@H](O[C@H]4C[C@](O)(C(C)=O)Cc5c(O)c6c(c(O)c54)C(=O)c4c(OC)cccc4C6=O)O[C@@H](C)[C@H]3O)cc2)[C@H](O)[C@H](C)O1 [WP631, α,α'-Bis-[3'-N-(daunorubicin)]-p-xylene hydrochloride]
binding mode from viscosity (DNA [3]; hydrochloride): binds to DNA by bisintercalation; also recorded: nearly double that observed for daunorubicin | slope of cubed root of the relative viscosity vs bound drug per DNA base pair (DNA [3]): 1.58±0.08 | Tm of herring sperm DNA in presence of drug (herring sperm DNA [4]; 10 μM WP631, BPE buffer (16 mM total Na+), DNA alone 67.2° C.): 93.5 °C | Kd (herring sperm DNA [4]; at 20° C., ΔHb assumed constant with temperature, read-out: binding constant at 20° C. (van't Hoff) (converted)): 0.0037 nM | Kd (herring sperm DNA [4]; at 93.5° C., assuming n=6 bp, read-out: binding constant K at Tm (converted)): 114 nM | expected binding constant (square of monomer constant) (herring sperm DNA [4]; expected for bisintercalator, not measured): 10^14 M^-1 | DNA affinity compared with polyamides, in words (herring sperm DNA [4]; vs pyrrole-imidazole polyamides (Trauger, 1996)): surpasses that of the polyamides | binding entropy ΔS (herring sperm DNA [5]): -51 cal mol^-1 K^-1 | binding free energy ΔG^0 (herring sperm DNA [5]): -15.3 kcal/mol | entropic contribution TΔS (herring sperm DNA [5]): -14.9 kcal/mol | enthalpy of melting of DNA-WP631 complex ΔH2 (herring sperm DNA [5]; DSC, BPE buffer, saturating amounts of WP631): 11.4 ± 1.0 kcal/mol | binding enthalpy ΔHb (herring sperm DNA [5]; hydrochloride): -30.2 ± 2.6 kcal/mol and -30.2 kcal/mol | potency in MCF-7 cells compared with DOX, in words (MCF-7 cells): less potent than DOX | IC50 (MCF-7 cells): 4.83 ± 2.5 µM | cytotoxicity in MCF-7/VP-16 cells compared with DOX, in words (MCF-7/VP-16 cells [6]): dramatic increase in cytotoxicity | RI (resistance index) MCF-7/VP16 / MCF-7 (MCF-7/VP-16 cells [6]): 0.5 | IC50 (MCF-7/VP-16 cells [7]): 2.5 ± 3.4 µM

COc1cccc2c1C(=O)c1c(O)c3c(c(O)c1C2=O)C[C@@](O)(C(C)=O)C[C@@H]3O[C@H]1C[C@H](N)[C@H](O)[C@H](C)O1 [daunorubicin]
binding mode from viscosity (DNA [3]): viscosity changes in excellent agreement with the theory | slope of cubed root of the relative viscosity vs bound drug per DNA base pair (DNA [3]): 0.89±0.04 | Kd (herring sperm DNA [8]; BPE buffer, at 20° C., read-out: binding constant of daunorubicin (converted)): 0.1 µM and 0.0625 µM | binding enthalpy ΔH (herring sperm DNA [8]; comparable ionic conditions): -10.8 kcal/mol | binding entropy ΔS (herring sperm DNA [8]; comparable ionic conditions): -3 cal mol^-1 K^-1 | binding free energy ΔG^0 (herring sperm DNA [8]; comparable ionic conditions): -9.9 kcal/mol | preferred DNA binding sites (DNA [9]): triplet sequences 5'-A/TCG and 5'-A/TGC are preferred binding sites

COc1cccc2c1C(=O)c1c(O)c3c(c(O)c1C2=O)C[C@@](O)(C(=O)CO)C[C@@H]3O[C@H]1C[C@H](N)[C@H](O)[C@H](C)O1 [DOX, doxorubicin]
IC50 (MCF-7 cells): 0.9 ± 0.47 µM | cytotoxicity in MDR KB-V1 cells, in words (KB-V-1 cells [1]): inactive | RI (resistance index) KB-V-1 / KB-3-1 (KB-V-1 cells [1]; human, kb-v-1 / kb-3-1 cells): 80.8 | DOX resistance index relative to that of WP631 (MCF-7/VP-16 cells [6]): 34 fold | RI (resistance index) MCF-7/VP16 / MCF-7 (MCF-7/VP-16 cells [6]): 17 | IC50 (KB-V-1 cells [2]): 299 µM | IC50 (MCF-7/VP-16 cells [7]): 14.9 ± 0.89 µM | preferred DNA binding sites (DNA [9]): binds preferentially to CGA or CGT | adverse systemic effects [10]: acute myelosuppression, cumulative cardiotoxicity, and gastrointestinal toxicity | IC50 (KB-3-1 cells): 3.7 ± 1.3 µM

CC[n+]1c(-c2ccccc2)c2cc(N)ccc2c2ccc(N)cc21 [ethidium bromide, Ethidium bromide]
binding mode from viscosity (DNA [3]): viscosity changes in excellent agreement with the theory | slope of cubed root of the relative viscosity vs bound drug per DNA base pair (DNA [3]): 0.84±0.02
